The text below walks through data of ChEMBL document CHEMBL1142424, “Octanorcucurbitane and cucurbitane triterpenoids from the tubers of Hemsleya endecaphylla with HIV-1 inhibitory activity” (J Nat Prod, 2008).

For data set [1], the system named is Human immunodeficiency virus 1. The data set is described as follows: Antiviral activity against HIV1 in C8166 cells after 72 hrs. The data set is classed as functional, organism-based. Particulars: Human immunodeficiency virus 1, C8166, 72 h.
A short description of data set [2]: Cytotoxicity against human C8166 cells by MTT method. It is filed as cell-based. In general terms: Tetrazolium assays rely on reduction of a dye to a coloured formazan, in cell work by metabolically active cells.
A short description of data set [3]: Selectivity index, ratio of CC50 for human C8166 cells to EC50 for HIV1. The data set is classed as functional.

≈ marks a conversion by molar mass, not a printed value.

On to `CC(C)(O)/C=C/C[C@@](C)(O)[C@H]1[C@H](O)C[C@@]2(C)[C@@H]3CC=C4[C@@H](C[C@H](O)C(=O)C4(C)C)[C@]3(C)C(=O)C[C@]12C`, for which the midpoint of the response in data set [1], the EC50, lay at 15.8 µg/mL (≈ 31.4 µM). Moreover, the CC50 – broadly, the concentration that lowers cell viability or growth by half – in data set [2] was determined as 121 µg/mL (≈ 241 µM). Besides, the “Ratio CC50/EC50” value in data set [3] amounted to 7.7.
The corresponding values for `CC(=O)OC(C)(C)CCC(=O)[C@](C)(O)[C@H]1[C@H](O)C[C@@]2(C)[C@@H]3CC=C4[C@@H](C=C(O)C(=O)C4(C)C)[C@]3(C)C(=O)C[C@]12C` are 2.4 µg/mL (≈ 4.3 µM), 21.6 µg/mL (≈ 38.7 µM) and 9.2.
The corresponding values for `CC(C)(O)CCC(=O)[C@@](C)(O)[C@H]1[C@H](O)C[C@@]2(C)[C@@H]3CC=C4[C@@H](C[C@H](O)C(=O)C4(C)C)[C@]3(C)C(=O)C[C@]12C` are 0.13 µg/mL (≈ 0.251 µM), 6.5 µg/mL (≈ 12.5 µM) and 50.
The corresponding values for `CC(=O)OC(C)(C)CCC(=O)[C@](C)(O)[C@H]1[C@H](O)C[C@@]2(C)[C@@H]3CC=C4[C@@H](C[C@H](O)C(=O)C4(C)C)[C@]3(C)C(=O)C[C@]12C` [23,24-DIHYDROCUCURBITACIN B] are 4.2 µg/mL (≈ 7.49 µM), 25.5 µg/mL (≈ 45.5 µM) and 6.1.
Consider `CC(=O)OC(C)(C)/C=C/C(=O)[C@](C)(O)[C@H]1[C@H](O)C[C@@]2(C)[C@@H]3CC=C4[C@@H](C[C@H](O)C(=O)C4(C)C)[C@]3(C)C(=O)C[C@]12C` [CUCURBITACIN B], for which the midpoint of cytotoxicity in data set [2], the CC50, lay at 1.5 µg/mL (≈ 2.68 µM).
`CC(=O)OC(C)(C)/C=C/C(=O)[C@](C)(O)[C@H]1[C@H](O)C[C@@]2(C)[C@@H]3CC=C4[C@H](C[C@H](O)C(=O)C4(C)C)[C@]3(C)C(=O)C[C@]12C` [CUCURBITACIN B]: the EC50 (commonly the concentration needed to bring the measured effect to its halfway point) in data set [1] turned out to be 0.09 µg/mL (≈ 0.161 µM). The “Ratio CC50/EC50” value in data set [3] was 16.7.
As for `CC(C)(O)/C=C/C(=O)[C@](C)(O)[C@H]1[C@H](O)C[C@@]2(C)[C@@H]3CC=C4[C@@H](C=C(O)C(=O)C4(C)C)[C@]3(C)C(=O)C[C@]12C` [CUCURBITACIN I], the EC50 in data set [1] is 0.7 µg/mL (≈ 1.36 µM). The same compound registered a CC50 in data set [2] of 14.4 µg/mL (≈ 28 µM). Further, the “Ratio CC50/EC50” value in data set [3] is 20.6.
The corresponding values for `CC1(C)C(=O)[C@@H](O)C[C@@H]2C1=CC[C@@H]1[C@@]2(C)C(=O)C[C@]2(C)CC(=O)C[C@@]12C` [ENDECAPHYLLACIN A] are 31.6 µg/mL (≈ 88.2 µM), above 200 µg/mL and above 6.3.
The corresponding values for `CC1(C)C(=O)C(O)=C[C@@H]2C1=CC[C@@H]1[C@@]2(C)C(=O)C[C@]2(C)CC(=O)C[C@@]12C` [ENDECAPHYLLACIN B] are 12 µg/mL (≈ 33.7 µM), 62 µg/mL (≈ 174 µM) and 5.
The corresponding values for `Cc1cn([C@H]2C[C@H](N=[N+]=[N-])[C@@H](CO)O2)c(=O)[nH]c1=O` [ZIDOVUDINE] are 0.0034 µg/mL (≈ 0.0127 µM), above 200 µg/mL and above 50000.
